The record followed here is ChEMBL document CHEMBL1130455, “Synthesis and antirheumatic activity of novel tetrahydro-6-quinolineacetic acid derivatives” (1997).

One may read the inhibition in vivo as the relative decrease from the control value, in per cent. In general, Inhibition refers to the relative decrease from the control value, in per cent.

Format in all cases: functional
Experiment [1] has as its system Mus musculus. The experiment can be described thus: Inhibitory effect on vascular permeability in mice [inhibitory rate of compound 100 mg/kg administered perorally]/[inhibitory rate of diclofenac-Na 25 mg/kg administered perorally].
Experiment [2] relates to Mus musculus. In words: Inhibitory effect on vascular permeability in mice [inhibitory rate of compound 50 mg/kg administered perorally]/[inhibitory rate of diclofenac-Na 25 mg/kg administered perorally].
Experiment [3] concerns Rattus norvegicus. In words: Bone damage score on day 27(the result of radiolgic analysis of non-injected paws on day 27) the bone destruction advances in the articular of adjuvant arthritic rat at a dose of 25 mg/kg.
The subject of experiment [4] is Rattus norvegicus. The experiment can be described thus: Inhibitory effect on adjuvant arthritis in rats at a dose of 12.5 mg/kg (the value is obtained by comparison between the non-injected paw volumes of the arthritic and control).
Experiment [5] concerns Rattus norvegicus. In words: Inhibitory effect on adjuvant arthritis in rats at a dose of 6.3 mg/kg (the value is obtained by comparison between the non-injected paw volumes of the arthritic and control).
The species entered for experiment [6] is Rattus norvegicus. The experiment can be described thus: The suppression of calcium release from bone stimulated with PTH in vitro at a concentration of 0.4 ug/mL expressed as percent inhibition of bone resorption.
For experiment [7], the species on record is Rattus norvegicus. In words: The suppression of calcium release from bone stimulated with PTH in vitro at a concentration of 10.0 ug/mL expressed as percent inhibition of bone resorption.
The species entered for experiment [8] is Rattus norvegicus. The experiment can be described thus: The suppression of calcium release from bone stimulated with PTH in vitro at a concentration of 2.0 ug/mL expressed as percent inhibition of bone resorption.
The species named for experiment [9] is Rattus norvegicus. In words: The suppression of calcium release from bone stimulated with IL1-beta in vitro at a concentration of 0.4 ug/mL expressed as percent inhibition of bone resorption.
The species entered for experiment [10] is Rattus norvegicus. The experiment can be described thus: The suppression of calcium release from bone stimulated with IL1-beta in vitro at a concentration of 10.0 ug/mL expressed as percent inhibition of bone resorption.
The species named for experiment [11] is Rattus norvegicus. In words: The suppression of calcium release from bone stimulated with IL1-beta in vitro at a concentration of 2.0 ug/mL expressed as percent inhibition of bone resorption.
The subject of experiment [12] is Rattus norvegicus. In words: Inhibitory effect on adjuvant arthritis in rats at a dose of 25.0 mg/kg (the value is obtained by comparison between the non-injected paw volumes of the arthritic and control). To be noted: for inhibition in vivo at 25 mg/kg: Rattus norvegicus.
For experiment [13], the system named is Rattus norvegicus. In words: Bone damage score on day 27(the result of radiolgic analysis of non-injected paws on day 27) the bone destruction advances in the articular of adjuvant arthritic rat at a dose of 0.5 mg/kg.
Experiment [14] has as its system Rattus norvegicus. In words: Inhibitory effect on adjuvant arthritis in rats at a dose of 25 mg/kg (the value is obtained by comparison between the non-injected paw volumes of the arthritic and control).
The species named for the next experiment is Ovis aries. The experiment can be described thus: In vitro inhibitory effect of anti-sheep erythrocyte IgM antibody-producing cells, (value is obtained by the number of IgM-PFC in the tested group and that in the control) at a concentration of 2*10e-6M.
Experiment [15] relates to Rattus norvegicus. The experiment can be described thus: Inhibitory effect on adjuvant arthritis in rats at a dose of 12.5 mg/kg, (the value is obtained by comparison between the non-injected paw volumes of the arthritic and control).
The test system of experiment [16] is Rattus norvegicus. In words: Inhibitory effect on adjuvant arthritis in rats at a dose of 25 mg/kg, (the value is obtained by comparison between the non-injected paw volumes of the arthritic and control).
In experiment [17] the test system is Rattus norvegicus. In words: Inhibitory effect on adjuvant arthritis in rats at a dose of 100 mg/kg (the value is obtained by comparison between the non-injected paw volumes of the arthritic and control).
The test system of experiment [18] is Rattus norvegicus. In words: Inhibitory effect on adjuvant arthritis in rats at a dose of 10 mg/kg (the value is obtained by comparison between the non-injected paw volumes of the arthritic and control).
The subject of experiment [19] is Rattus norvegicus. The experiment can be described thus: Inhibitory effect on adjuvant arthritis in rats at a dose of 50 mg/kg (the value is obtained by comparison between the non-injected paw volumes of the arthritic and control).
The subject of experiment [20] is Rattus norvegicus. The experiment can be described thus: Inhibitory effect on adjuvant arthritis in rats at a dose of 25 mg/kg (the value is obtained by comparison between the non-injected paw volumes of the arthritic and control).
The test system of experiment [21] is Rattus norvegicus. In words: Inhibitory effect on adjuvant arthritis in rats at a dose of 12.5 mg/kg (the value is obtained by comparison between the non-injected paw volumes of the arthritic and control).

The structures appear in SMILES notation.

On to `CC(C)C1CCc2cc(CC(=O)O)cc(Cl)c2N1` (stereo not given), for which, in the experiment with Mus musculus [1], the inhibition ratio vs diclofenac worked out at 1.1.

`O=C(O)Cc1ccc2c(c1)CCCN2`: the inhibition ratio vs diclofenac in the experiment with Mus musculus [1] was determined as 1.06.

Regarding `O=C(O)Cc1cc(Cl)c2c(c1)CC[C@@H](C(F)(F)F)N2`, the figures for the inhibition ratio vs diclofenac in the experiment on Mus musculus [2] and with Mus musculus [1] were 1.28 and 1.62, respectively. Besides, the Bone damage score with Rattus norvegicus [3] is reported as 2.5. Further, in the experiment with Rattus norvegicus [4], the inhibition in vivo at 12.5 mg/kg came out at 34%. For the same compound, the inhibition in vivo at 6.3 mg/kg in the experiment with Rattus norvegicus [5] came out at 25%. The Inhibition in the experiment filed under Rattus norvegicus [6] came out at 41%; in the experiment filed under Rattus norvegicus [7], 94%; in the experiment listed under Rattus norvegicus [8], 61%; in the experiment listed under Rattus norvegicus [9], 24%; in the experiment filed under Rattus norvegicus [10], 97%; in the experiment filed under Rattus norvegicus [11], 78%. Moreover, the inhibition in vivo at 25 mg/kg with Rattus norvegicus [12] was 60%.

In the case of `O=C(O)Cc1cc(Cl)c2c(c1)CCC(C(=O)O)N2` (stereo not given), in the experiment with Mus musculus [1], the inhibition ratio vs diclofenac is 0.

On to `CC1(C)CCc2cc(CC(=O)O)cc(Cl)c2N1`, for which the inhibition ratio vs diclofenac in the experiment with Mus musculus [1] worked out at 1.22.

For the compound `O=C([O-])Cc1ccccc1Nc1c(Cl)cccc1Cl.[Na+]` [DICLOFENAC SODIUM], the Bone damage score in the experiment on Rattus norvegicus [13] is 4.3.

In the case of `CCCC1CCc2cc(CC(=O)O)cc(Cl)c2N1` (stereo not given), the inhibition ratio vs diclofenac in the experiment with Mus musculus [1] was determined as 1.59. Moreover, the inhibition in vivo at 12.5 mg/kg in the experiment on Rattus norvegicus [4] is 32%. Moreover, the inhibition in vivo at 25 mg/kg with Rattus norvegicus [14] turned out to be 47%.

With `O=C(O)Cc1cc(Cl)c2c(c1)CCC(c1ccccc1)N2` (stereo not given), the inhibition ratio vs diclofenac in the experiment with Mus musculus [1] is 1.63.

For the compound `O=C(O)Cc1cc(Cl)c2c(c1)CCC(C(F)(F)F)N2` (stereo not given), the results for the inhibition ratio vs diclofenac with Mus musculus [2] and in the experiment on Mus musculus [1] were 0.99 and 1.48, respectively. For the same compound, in the experiment on Rattus norvegicus [4], the inhibition in vivo at 12.5 mg/kg came out at 36%. Further, the Inhibition is reported as 71% in the experiment listed under Ovis aries and 46% with Rattus norvegicus [12] (25 mg/kg). Besides, the inhibition in vivo at 25 mg/kg with Rattus norvegicus [12] is 45%.

In the case of `CCC1CCc2cc(CC(=O)O)cc(Cl)c2N1` (stereo not given), the inhibition ratio vs diclofenac in the experiment on Mus musculus [1] was 1.54.

With `CC1CCc2cc(CC(=O)O)cc(Cl)c2N1` (stereo not given), the inhibition ratio vs diclofenac in the experiment on Mus musculus [1] was 1.94. For the same compound, the inhibition in vivo at 12.5 mg/kg with Rattus norvegicus [15] is 42%. Moreover, the inhibition in vivo at 25 mg/kg in the experiment with Rattus norvegicus [16] came out at 56%. For the same compound, the Inhibition in the experiment filed under Ovis aries amounted to 60%.

With `O=C(O)Cc1cc(Cl)c2c(c1)CCCN2`, in the experiment on Mus musculus [1], the inhibition ratio vs diclofenac worked out at 1.44. For the same compound, the inhibition in vivo at 100 mg/kg in the experiment with Rattus norvegicus [17] worked out at 55%. Also, in the experiment on Rattus norvegicus [18], the inhibition in vivo at 10 mg/kg stood at 27%. Further, the inhibition in vivo at 50 mg/kg in the experiment on Rattus norvegicus [19] turned out to be 20%.

As for `O=C(O)Cc1cc(Cl)c2c(c1)CCC(c1ccccc1F)N2` (stereo not given), the inhibition ratio vs diclofenac with Mus musculus [1] was 2.09. Also, the inhibition in vivo at 100 mg/kg with Rattus norvegicus [17] was 64%. Further, the inhibition in vivo at 25 mg/kg in the experiment on Rattus norvegicus [20] amounted to 19%. Besides, the inhibition in vivo at 50 mg/kg in the experiment with Rattus norvegicus [19] amounted to 52%.

As to `O=C(O)Cc1cc(Cl)c2c(c1)CC[C@H](C(F)(F)F)N2`, the inhibition ratio vs diclofenac in the experiment with Mus musculus [2] is 0.43; in the experiment on Mus musculus [1], 1.5. Further, in the experiment with Rattus norvegicus [21], the inhibition in vivo at 12.5 mg/kg turned out to be 3%. The inhibition in vivo at 25 mg/kg with Rattus norvegicus [12] was found to be 20%.

Regarding `COc1ccc(C2CCc3cc(CC(=O)O)cc(Cl)c3N2)cc1` (stereo not given), in the experiment on Mus musculus [1], the inhibition ratio vs diclofenac came out at 0.62.
